{"source": "PubChem BioAssay AID1259411", "about": "(Chemical Carcinogenesis Research Information System (CCRIS), 2018)", "test_system": "rodent carcinogenicity bioassays, tumor incidence", "assay": "CCRIS carcinogenicity studies", "summary_of_the_method": "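Archive of carcinogenicity, mutagenicity, tumor promotion and tumor inhibition results drawn from journals, NCI reports and other sources, expert-reviewed; covers 1985-2011 and is no longer updated.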", "note": "Activity calls are given as the source filed them. The rule behind the calls is not given here."}
{"smiles": "Cc1cc(C)c(S(=O)(=O)O)cc1N=Nc1cc(S(=O)(=O)O)c2ccccc2c1O", "values": [{"measurement": "carcinogen call", "setting": "Species: MOUSE, Strain/Sex: SWISS-WEBSTER/FEMALE, Route: DERMAL, Dose: 0, 1% IN 0.1 ML DISTILLED WATER 1/WK FOR 19.5 MO (STUDY DURATION: 19.5 MO)", "value": "inactive; negative"}, {"measurement": "carcinogen call", "setting": "Species: MOUSE, Strain/Sex: SWISS-WEBSTER/MALE, Route: DERMAL, Dose: 0, 1% IN 0.1 ML DISTILLED WATER 1/WK FOR 19.5 MO (STUDY DURATION: 19.5 MO)", "value": "inactive; negative"}]}
{"smiles": "O=[As]O", "values": [{"measurement": "carcinogen call", "setting": "Species: Mouse, Strain/Sex: C3H/10 pregnant dams/group, 25 male and 25 female offspring per group assigned at 4 wks of age, Route: Oral, Dose: 0, 42.5, 85 ppm in drinking water of dams, offspring followed for 90 wks, Tumor Site: Type of Lesion: Hepatocellular carcinoma in offspring", "value": "active; positive"}, {"measurement": "carcinogen call", "setting": "Species: Mouse, Strain/Sex: C3H/Female offspring, Route: Oral, Dose: 0, 85 ppm (in drinking water of dam) in utero", "value": "inactive; negative"}, {"measurement": "carcinogen call", "setting": "Species: Mouse, Strain/Sex: C3H/Female offspring, Route: Oral, Dose: 0, 85 ppm in drinking water post pubescence (PND 56) to 365 days", "value": "inactive; negative (hyperplasia only, no tumors)"}, {"measurement": "carcinogen call", "setting": "Species: Mouse, Strain/Sex: C3H/Female offspring, Route: Oral, Dose: 0, 85 ppm in drinking water prior to pubescence (PND 21) to 365 days", "value": "inactive; negative (hyperplasia only, no increase in tumors)"}, {"measurement": "carcinogen call", "setting": "Species: Mouse, Strain/Sex: C3H/Female offspring, Route: Oral, Dose: 0, 85 ppm in utero and in drinking water to 365 days", "value": "inactive; negative"}, {"measurement": "carcinogen call", "setting": "Species: Mouse, Strain/Sex: C3H/HeNCr F344/ Male and female (25-35/Group as offspring of 10 dams per exposure level), Route: Drinking water, Dose: 0, 42.5, 85 ppm ad lib on gestation days 8-18, study duration for offspring 90 wks, Tumor Site: Type of Lesion: Male offspring: Liver: hepatocellular carcinoma (statistically significant increase in incidence and multiplicity), Adre", "value": "active; positive"}, {"measurement": "carcinogen call", "setting": "Species: Mouse, Strain/Sex: C3H/Male offspring, Route: Oral, Dose: 0, 85 ppm (in drinking water of dam) in utero", "value": "inactive; negative"}, {"measurement": "carcinogen call", "setting": "Species: Mouse, Strain/Sex: C3H/Male offspring, Route: Oral, Dose: 0, 85 ppm in drinking water post pubescence (PND 56) to 365 days", "value": "inactive; negative (decreased incidence of spontaneous tumors)"}, {"measurement": "carcinogen call", "setting": "Species: Mouse, Strain/Sex: C3H/Male offspring, Route: Oral, Dose: 0, 85 ppm in drinking water prior to pubescence (PND 21) to 365 days", "value": "inactive; negative (decreased incidence of spontaneous tumors)"}, {"measurement": "carcinogen call", "setting": "Species: Mouse, Strain/Sex: C3H/Male offspring, Route: Oral, Dose: 0, 85 ppm in utero and in drinking water to 365 days, Tumor Site: Type of Lesion: Liver: adenoma and carcinoma (30%, 0%)", "value": "active; positive"}]}
{"smiles": "CN(C)c1ccc(C(c2ccccc2)c2ccc(N(C)C)cc2)cc1", "values": [{"measurement": "carcinogen call", "setting": "Species: MOUSE, Strain/Sex: B6C3F1/FEMALE, Route: ORAL (DIET), Dose: 0, 91, 204, 408 PPM IN DIET FOR 2 YRS, Dose: 0, 91, 204, 408 PPM IN DIET FOR 2 YRS, Tumor Site: Type of Lesion: LIVER: HEPATOCELLULAR ADENOMA OR CARCINOMA", "value": "active; positive; incidence of tumors was statistically significant"}, {"measurement": "carcinogen call", "setting": "Species: RAT, Strain/Sex: F344/N/FEMALE, Route: DIET, Dose: 0, 91, 272, 543 PPM IN DIET FOR 2 YRS, Dose: 0, 91, 272, 543 PPM IN DIET FOR 2 YRS, Tumor Site: Type of Lesion: LIVER: HEPATOCELLULAR ADENOMA, THYROID: FOLLICULAR CELL ADENOMA OR CARCINOMA", "value": "equivocal; none of the tumor incidences reached statistical significance; for th"}, {"measurement": "carcinogen call", "setting": "Species: RAT, Strain/Sex: F344/N/MALE, Route: ORAL (DIET), Dose: 0, 91, 272, 543 PPM IN DIET FOR 2 YRS, Dose: 0, 91, 272, 543 PPM IN DIET FOR 2 YRS, Tumor Site: Type of Lesion: TESTIS: INTERSTITIAL CELL ADENOMA, THYROID: FOLLICULAR CELL ADENOMA OR CARCINOMA", "value": "equivocal; thyroid tumors did not reach statistical significance"}]}
{"smiles": "C[C@]12C/C(=C/O)C(=O)C[C@@H]1CC[C@@H]1[C@@H]2CC[C@@]2(C)[C@H]1CC[C@]2(C)O", "values": [{"measurement": "carcinogen call", "setting": "Species: HUMAN, Route: ORAL, Tumor Site: Type of Lesion: LIVER", "value": "active; positive"}, {"measurement": "carcinogen call", "setting": "Species: RAT, Strain/Sex: F344/N/FEMALE, Route: GAVAGE, Dose: 0, 3, 30, 100 MG/KG IN 0.5% METHYLCELLULOSE FOR 104 WK (STUDY DURATION: 104 WK), Dose: 0, 3, 30, 100 MG/KG IN 0.5% METHYLCELLULOSE FOR 104 WK (STUDY DURATION: 104 WK), Tumor Site: Type of Lesion: LIVER: HEPATOCELLULAR ADENOMA, HEPATOCELLULAR ADENOMA OR CARCINOMA, LUNG: ALVEOLAR/BRONCHIOLAR ADENOMA, ALVEOLAR/BRONCHI", "value": "active; positive"}, {"measurement": "carcinogen call", "setting": "Species: RAT, Strain/Sex: F344/N/MALE, Route: GAVAGE, Dose: 0, 3, 30, 150 MG/KG IN 0.5% METHYLCELLULOSE FOR 104 WK (STUDY DURATION: 104 WK), Dose: 0, 3, 30, 150 MG/KG IN 0.5% METHYLCELLULOSE FOR 104 WK (STUDY DURATION: 104 WK), Tumor Site: Type of Lesion: SKIN (SUBCUTANEOUS TISSUE): FIBROMA, FIBROMA OR FIBROSARCOMA, ADRENAL GLAND: BENIGN PHEOCHROMOCYTOMA, BENIGN PHEOCHROMOC", "value": "equivocal"}]}
{"smiles": "O=C(O)CC(O)(CC(=O)O)C(=O)O", "values": [{"measurement": "carcinogen call", "setting": "Species: MOUSE, Strain/Sex: BC3F1/FEMALE, Route: IP INJECTION ONCE, Dose: 100, 500, 1000, 5000 BQ (STUDY DURATION: LIFESPAN), Dose: 100, 500, 1000, 5000 BQ (STUDY DURATION: LIFESPAN), Tumor Site: Type of Lesion: BONE: OSTEOSARCOMAS", "value": "active; positive"}, {"measurement": "carcinogen call", "setting": "Species: MOUSE, Strain/Sex: C3H/FEMALE, Route: IP INJECTION ONCE, Dose: 100, 500, 1000, 5000 BQ (STUDY DURATION: LIFESPAN), Dose: 100, 500, 1000, 5000 BQ (STUDY DURATION: LIFESPAN), Tumor Site: Type of Lesion: BONE: OSTEOSARCOMAS", "value": "active; positive"}, {"measurement": "carcinogen call", "setting": "Species: MOUSE, Strain/Sex: C57BL/6/FEMALE, Route: IP INJECTION ONCE, Dose: 100, 500, 1000, 5000 BQ (STUDY DURATION: LIFESPAN), Dose: 100, 500, 1000, 5000 BQ (STUDY DURATION: LIFESPAN), Tumor Site: Type of Lesion: BONE: OSTEOSARCOMAS", "value": "active; positive"}]}
{"smiles": "Cc1ccc(N=Nc2c(O)ccc3ccccc23)c([N+](=O)[O-])c1", "values": [{"measurement": "carcinogen call", "setting": "Species: MOUSE, Strain/Sex: B6C3F1/FEMALE, Route: ORAL, Dose: 0, 12500, 25000, 50000 PPM IN FEED FOR 2 YR (STUDY DURATION: 2 YR), Dose: 0, 12500, 25000, 50000 PPM IN FEED FOR 2 YR (STUDY DURATION: 2 YR)", "value": "inactive; negative"}, {"measurement": "carcinogen call", "setting": "Species: MOUSE, Strain/Sex: B6C3F1/MALE, Route: ORAL, Dose: 0, 12500, 25000, 50000 PPM IN FEED FOR 2 YR (STUDY DURATION: 2 YR), Dose: 0, 12500, 25000, 50000 PPM IN FEED FOR 2 YR (STUDY DURATION: 2 YR), Tumor Site: Type of Lesion: KIDNEY (CORTEX): ADENOMA, THYROID GLAND (FOLLICULAR CELL): ADENOMA", "value": "active; positive"}, {"measurement": "carcinogen call", "setting": "Species: RAT, Strain/Sex: F344/FEMALE, Route: ORAL, Dose: 0, 6000, 12500, 25000 PPM IN FEED FOR 2 YR (STUDY DURATION: 2 YR), Dose: 0, 6000, 12500, 25000 PPM IN FEED FOR 2 YR (STUDY DURATION: 2 YR), Tumor Site: Type of Lesion: LIVER: HEPATOCELLULAR ADENOMA", "value": "active; positive"}, {"measurement": "carcinogen call", "setting": "Species: RAT, Strain/Sex: F344/MALE, Route: ORAL, Dose: 0, 6000, 12500, 25000 PPM IN FEED FOR 2 YR (STUDY DURATION: 2 YR), Dose: 0, 6000, 12500, 25000 PPM IN FEED FOR 2 YR (STUDY DURATION: 2 YR), Tumor Site: Type of Lesion: ADRENAL MEDULLA: PHEOCHROMOCYTOMA (BENIGN OR MALIGNANT)", "value": "active; positive"}]}
{"smiles": "c1ccc2c(c1)c1cccc3ccc4cccc2c4c31", "values": [{"measurement": "carcinogen call", "setting": "Species: RAT, Strain/Sex: OSBORNE-MENDEL/FEMALE, Route: LUNG IMPLANT, Dose: 0, 0.2, 1.0, 5.0 MG IN BEESWAX/TRIOCTANOIN (STUDY DURATION: LIFETIME), Dose: 0, 0.2, 1.0, 5.0 MG IN BEESWAX/TRIOCTANOIN (STUDY DURATION: LIFETIME)", "value": "inactive; negative"}]}
{"smiles": "CN(C)c1ccc(N=Nc2ccccc2)cc1", "values": [{"measurement": "carcinogen call", "setting": "Species: DOG, Route: ORAL, Tumor Site: Type of Lesion: URINARY BLADDER", "value": "active; positive"}, {"measurement": "carcinogen call", "setting": "Species: MOUSE, Route: SUBCUTANEOUS, Tumor Site: Type of Lesion: LIVER, INJECTION SITE", "value": "active; positive"}, {"measurement": "carcinogen call", "setting": "Species: MOUSE, Strain/Sex: B6C3F1/FEMALE, Route: INTRAPERITONEAL, Dose: 0, 0.3 UMOL/G IN TRIOCTANOIN ONCE ON DAY 1 FOLLOWED BY 0.4 UMOL/G ONCE ON DAY 8, 15 AND 22 (STUDY DURATION: 10 MO)", "value": "inactive; negative"}, {"measurement": "carcinogen call", "setting": "Species: MOUSE, Strain/Sex: B6C3F1/MALE, Route: INTRAPERITONEAL, Dose: 0, 0.017, 0.05, 0.15, 0.45 UMOL/G ONCE IN TRIOCTANOIN (STUDY DURATION: 10 MO), Dose: 0, 0.017, 0.05, 0.15, 0.45 UMOL/G ONCE IN TRIOCTANOIN (STUDY DURATION: 10 MO), Tumor Site: Type of Lesion: LIVER: HEPATOMA", "value": "active; positive"}, {"measurement": "carcinogen call", "setting": "Species: MOUSE, Strain/Sex: B6C3F1/MALE, Route: INTRAPERITONEAL, Dose: 0, 0.3 UMOL/G IN TRIOCTANOIN ONCE ON DAY 1 FOLLOWED BY 0.4 UMOL/G ONCE ON DAY 8, 15 AND 22 (STUDY DURATION: 10 MO), Tumor Site: Type of Lesion: LIVER: HEPATOMA", "value": "active; positive"}, {"measurement": "carcinogen call", "setting": "Species: RAT, Route: ORAL, Tumor Site: Type of Lesion: LIVER", "value": "active; positive"}, {"measurement": "carcinogen call", "setting": "Species: RAT, Strain/Sex: F344/MALE, Route: INTRAPERITONEAL, Dose: 0, 0.3 UMOL/G IN TRIOCTANOIN ONCE ON DAY 1 FOLLOWED BY 0.4 UMOL/G ONCE ON DAY 8, 15 AND 22 (STUDY DURATION: 10 MO)", "value": "inactive; negative"}]}
